Laboratory results: ChEMBL document CHEMBL1629610, “A 6-aminoquinolone compound, WC5, with potent and selective anti-human cytomegalovirus activity” (Antimicrob Agents Chemother, 2009)
The source made the active and inactive calls. No cut-off for these calls is given here.

Tests used:
[1] = Selectivity index, ratio of CC50 for Human foreskin fibroblast to EC50 for Human cytomegalovirus AD169
[2] = Cytotoxicity against human foreskin fibroblast after 5 days by MTT assay; type: cell-based; conditions: human foreskin fibroblasts (HFF)
Human betaherpesvirus 5 [3] = assay: Antiviral activity against Human cytomegalovirus AD169 infected in human […] cells assessed as induction of GFP-tagged viral immediate early gene expression at 0.5 uM after 48 hrs by flow cytometry; type: functional, organism-based
Human betaherpesvirus 5 [4] = assay: Antiviral activity against Human cytomegalovirus infected in human […] cells transfected with pcDNA3.1-human GADPH-GFP assessed as induction of GFP-tagged viral immediate early gene expression at 0.5 uM after 48 hrs by transactivation assay; type: functional, organism-based; conditions: AD169
Human betaherpesvirus 5 [5] = assay: Antiviral activity against Human cytomegalovirus infected in human […] cells transfected with pcDNA3.1-human EF1alpha-GFP assessed as induction of GFP-tagged viral immediate early gene expression at 0.5 uM after 48 hrs by transactivation assay; type: functional, organism-based; conditions: AD169
Human betaherpesvirus 5 [6] = assay: Antiviral activity against Human cytomegalovirus infected in human […] cells transfected with pcDNA3.1-HIV1 LTR-GFP assessed as induction of GFP-tagged viral immediate early gene expression at 0.5 uM after 48 hrs by transactivation assay; type: functional, organism-based; conditions: AD169
Human betaherpesvirus 5 [7] = assay: Antiviral activity against Human cytomegalovirus AD169 infected in human foreskin fibroblast assessed as inhibition of viral replication after 10 days by plaque reduction assay; type: functional, organism-based; conditions: Human betaherpesvirus 5, AD169, 240 h
Human betaherpesvirus 5 [8] = assay: Antiviral activity against Human cytomegalovirus infected in human […] cells transfected with pcDNA3.1-human GADPH-GFP assessed as induction of GFP-tagged viral immediate early gene expression at 50 uM after 48 hrs by transactivation assay; type: functional, organism-based; conditions: AD169
[9] = Cytotoxicity against human BC-3 cells by MTT assay; type: cell-based
Human betaherpesvirus 5 [10] = assay: Antiviral activity against GDG-, GCV-resistant Human cytomegalovirus K17 harboring 4-aa deletion (638-641) in UL97 kinase infected in human foreskin fibroblast by plaque reduction assay; type: functional, organism-based; conditions: Human betaherpesvirus 5, K17
Human betaherpesvirus 5 [11] = assay: Antiviral activity against Human cytomegalovirus infected in human […] cells transfected with pcDNA3.1-human EF1alpha-GFP assessed as induction of GFP-tagged viral immediate early gene expression at 50 uM after 48 hrs by transactivation assay; type: functional, organism-based; conditions: AD169
[12] = Selectivity index, ratio of CC50 for human HSB-2 cells to EC50 for Human herpesvirus 6A GS; type: toxicity, cell-based; conditions: read-out: Ratio CC50/EC50
Human betaherpesvirus 5 [13] = assay: Antiviral activity against GDG-, GCV-,CDV-resistant Human cytomegalovirus P53 harboring DNA polymerase A987G mutant gene infected in human foreskin fibroblast by plaque reduction assay; type: functional, organism-based; conditions: Human betaherpesvirus 5, P53
Human betaherpesvirus 5 [14] = assay: Antiviral activity against Human cytomegalovirus AD169 infected in human foreskin fibroblast by plaque reduction assay; type: functional, organism-based; conditions: Human betaherpesvirus 5, AD169
[15] = Cytotoxicity against human MOLT4 cells by MTT assay; type: cell-based, MOLT-4
Human betaherpesvirus 5 [16] = assay: Antiviral activity against Human cytomegalovirus AD169 infected in human […] cells assessed as induction of GFP-tagged viral immediate early gene expression at 50 uM after 48 hrs by flow cytometry; type: functional, organism-based
[17] = Cytotoxicity against human HSB2 cells by MTT assay; type: cell-based, CCRF-HSB-2
Human gammaherpesvirus 8 [18] = assay: Antiviral activity against Human herpesvirus 8 infected in human BC-3 cells assessed as inhibition of virus DNA replication after 12 days by quantitative real time PCR; type: functional, organism-based; conditions: Human gammaherpesvirus 8, BC-3, 288 h
HSB-2 = assay: Antiviral activity against Human herpesvirus 6A GS infected in human HSB-2 cells assessed as inhibition of virus-induced cytopathic effect by microscopic estimation; type: functional, cell-based; conditions: Human herpesvirus 6 (strain GS)
[19] = Selectivity index, ratio of CC50 for mouse NIH 3T3 cells to EC50 for Murine cytomegalovirus; type: toxicity, cell-based, NIH3T3; conditions: read-out: Ratio CC50/EC50
Human betaherpesvirus 5 [20] = assay: Antiviral activity against Human cytomegalovirus infected in human […] cells transfected with pcDNA3.1-HIV1 LTR-GFP assessed as induction of GFP-tagged viral immediate early gene expression at 50 uM after 48 hrs by transactivation assay; type: functional, organism-based; conditions: AD169
Human betaherpesvirus 5 [21] = assay: Antiviral activity against GCV-resistant Human cytomegalovirus 759rD100 harboring 4-aa deletion (638-641) in UL97 kinase and DNA polymerase A987G mutant infected in human foreskin fibroblast by plaque reduction assay; type: functional, organism-based; conditions: Human betaherpesvirus 5, 759rD100
MOLT-4 = assay: Antiviral activity against Human herpesvirus 6B Z29 infected in human MOLT4 cells assessed as inhibition of virus-induced cytopathic effect by microscopic estimation; type: functional, cell-based; conditions: Human herpesvirus 6 strain Z29
Human betaherpesvirus 5 [22] = assay: Antiviral activity against PFA-, acyclovir-resistant Human cytomegalovirus D100 harboring mutation in DNA polymerase infected in human foreskin fibroblast by plaque reduction assay; type: functional, organism-based; conditions: Human betaherpesvirus 5, D100
Human gammaherpesvirus 8 [23] = assay: Antiviral activity against Human herpesvirus 8 infected in human BC-3 cells assessed as inhibition of virus-induced cytopathic effect by microscopic estimation; type: functional, organism-based
[24] = Ratio of EC50 for Human cytomegalovirus AD169 to EC50 for Murine cytomegalovirus; type: functional
[25] = Cytotoxicity against mouse NIH/3T3 cells by MTT assay; type: cell-based, NIH3T3
[26] = Antiviral activity against Human herpesvirus 6A GS infected in human HSB-2 cells assessed as inhibition of virus DNA replication after 12 days by quantitative real time PCR; type: functional, cell-based, Human herpesvirus 6 (strain GS); conditions: Human betaherpesvirus 6A, HSB2, 288 h
[27] = Selectivity index, ratio of CC50 for human MOLT4 cells to EC50 for Human herpesvirus 6B Z29; type: toxicity, cell-based, MOLT-4; conditions: read-out: Ratio CC50/EC50
[28] = Selectivity index, ratio of CC50 for human BC-3 cells to EC50 for Human herpesvirus 8; type: toxicity, cell-based; conditions: read-out: Ratio CC50/EC50
[29] = Antiviral activity against Murine cytomegalovirus Smith infected in mouse NIH-3T3 cells assessed as inhibition of virus DNA replication after 12 days by plaque reduction assay; type: functional, cell-based, Murine cytomegalovirus (strain Smith); conditions: Murid betaherpesvirus 1, NIH3T3, 288 h
[30] = Antiviral activity against Human herpesvirus 6B Z29 infected in human MOLT4 cells assessed as inhibition of virus DNA replication after 12 days by quantitative real time PCR; type: functional, cell-based, Human herpesvirus 6 strain Z29; conditions: Human betaherpesvirus 6B, MOLT-4, 288 h

Cn1cc(C(=O)O)c(=O)c2cc(N)c(N3CCN(c4ccccn4)CC3)cc21
Ratio CC50/EC50 [1]: 77 | CC50 at 120 h [2]: 54 µM

Nc1cc2c(=O)c(C(=O)O)cn(C3CC3)c2cc1N1CCN(c2nc3ccccc3s2)CC1
Activity (Human betaherpesvirus 5 [3]): Active | Activity (Human betaherpesvirus 5 [4]): Active | Activity (Human betaherpesvirus 5 [5]): Active | CC50 at 120 h [2]: 4.5 µM | Activity (Human betaherpesvirus 5 [6]): Active

CC(C)(C)n1cc(C(=O)O)c(=O)c2cc(N)c(N3CCN(c4ccccn4)CC3)cc21
Ratio CC50/EC50 [1]: >=13 | CC50 at 120 h [2]: ≥ 475 µM

Nc1nc2c(ncn2COC(CO)CO)c(=O)[nH]1 [GANCICLOVIR]
EC50 (Human betaherpesvirus 5 [7]): 1.9 µM | CC50 at 120 h [2]: 550 µM

Nc1cc2c(=O)c(C(=O)O)cn(C3CC3)c2cc1N1CCN(c2ccccn2)CC1
Activity (Human betaherpesvirus 5 [8]): inactive | CC50 [9]: 47 µM | EC50 (Human betaherpesvirus 5 [10]): 1.5 µM | Activity (Human betaherpesvirus 5 [11]): inactive | selectivity ratio [12]: 6 | EC50 (Human betaherpesvirus 5 [13]): 1 µM | EC50 (Human betaherpesvirus 5 [14]): 0.9 µM | CC50 [15]: 24 µM | Activity (Human betaherpesvirus 5 [16]): inactive | CC50 [17]: 32 µM | EC50 (Human gammaherpesvirus 8 [18]): 14.2 µM | Activity (HSB-2): Active | selectivity ratio [19]: 25 | Activity (Human betaherpesvirus 5 [20]): inactive | EC50 (Human betaherpesvirus 5 [21]): 0.9 µM | Activity (MOLT-4): Active | EC50 (Human betaherpesvirus 5 [22]): 1.1 µM | Activity (Human gammaherpesvirus 8 [23]): Active | fold change (FC) [24]: 10 | CC50 [25]: 275 µM | CC50 at 120 h [2]: 431 µM | EC50 [26]: 5.1 µM | selectivity ratio [27]: 7 | selectivity ratio [28]: 3 | EC50 [29]: 10.8 µM | EC50 [30]: 3.3 µM
